Measured values reported in ChEMBL document CHEMBL6134781, “In vitro identification of oridonin hybrids as potential anti-TNBC agents inducing cell cycle arrest and apoptosis by regulation of p21, γH2AX and cleaved PARP” (RSC Med Chem, 2024).
pIC50: −log10 of the molar value. The source made the active and inactive calls. No cut-off for these calls is given here.

Assays:
[1] = tested on: MDA-MB-468; experiment: Cytotoxicity against human MDA-MB-468 cells assessed as inhibition of cell viability incubated for 72 hrs by SRB assay; assay type: functional, cell-based; conditions: MDA-MB-468, 72 h
[2] = tested on: HCC1937; experiment: Cytotoxicity against human HCC1937 cells assessed as inhibition of cell viability incubated for 72 hrs by SRB assay; assay type: functional, cell-based; conditions: HCC1937, 72 h
[3] = tested on: HCC1806; experiment: Induction of cell cycle arrest in human HCC1806 cells assessed as accumulation at G2/M phase incubated for 16 hrs by PI staining based flow cytometry; assay type: functional; conditions: dose 1-3 µM
[4] = tested on: MDA-MB-468; experiment: Induction of cell cycle arrest in human MDA-MB-468 cells assessed as accumulation at G2/M phase incubated for 16 hrs by PI staining based flow cytometry; assay type: functional; conditions: dose 1-3 µM
[5] = tested on: MDA-MB-231; experiment: Induction of cell cycle arrest in human MDA-MB-231 cells assessed as decrease in accumulation at S phase incubated for 16 hrs by PI staining based flow cytometry; assay type: functional; conditions: dose 1-3 µM
[6] = tested on: MDA-MB-468; experiment: Induction of cell cycle arrest in human MDA-MB-468 cells assessed as decrease in accumulation at S phase incubated for 16 hrs by PI staining based flow cytometry; assay type: functional; conditions: dose 1-3 µM
[7] = tested on: HCC1937; experiment: Effect on cell cycle distribution in human HCC1937 cells at 1 to 3 uM incubated for 16 hrs by PI staining based flow cytometry; assay type: functional; conditions: dose 1-3 µM
[8] = tested on: MDA-MB-231; experiment: Induction of apoptosis in human MDA-MB-231 cells assessed as early apoptotic cells at 1 uM incubated for 16 hrs by Annexin V-FITC/PI staining based flow cytometry (reference value: 1.94 %); assay type: functional
[9] = tested on: MDA-MB-231; experiment: Induction of apoptosis in human MDA-MB-231 cells assessed as viable cells at 3 uM incubated for 16 hrs by Annexin V-FITC/PI staining based flow cytometry (reference value: 89.5 %); assay type: functional; conditions: read-out: Activity
[10] = tested on: MDA-MB-231; experiment: Induction of apoptosis in human MDA-MB-231 cells assessed as early apoptotic cells at 3 uM incubated for 16 hrs by Annexin V-FITC/PI staining based flow cytometry (reference value: 1.94 %); assay type: functional
[11] = tested on: MDA-MB-231; experiment: Induction of apoptosis in human MDA-MB-231 cells assessed as late apoptotic cells at 3 uM incubated for 16 hrs by Annexin V-FITC/PI staining based flow cytometry (reference value: 4.62 %); assay type: functional
[12] = tested on: MDA-MB-468; experiment: Induction of apoptosis in human MDA-MB-468 cells assessed as viable cells at 1 uM incubated for 24 hrs by Annexin V-FITC/PI staining based flow cytometry (reference value: 88.9 %); assay type: functional; conditions: read-out: Activity
[13] = tested on: MDA-MB-468; experiment: Induction of apoptosis in human MDA-MB-468 cells assessed as early apoptotic cells at 1 uM incubated for 24 hrs by Annexin V-FITC/PI staining based flow cytometry (reference value: 3.17 %); assay type: functional
[14] = tested on: MDA-MB-468; experiment: Induction of apoptosis in human MDA-MB-468 cells assessed as late apoptotic cells at 1 uM incubated for 24 hrs by Annexin V-FITC/PI staining based flow cytometry (reference value: 3.84 %); assay type: functional
[15] = tested on: MDA-MB-468; experiment: Induction of apoptosis in human MDA-MB-468 cells assessed as necrotic cells at 1 uM incubated for 24 hrs by Annexin V-FITC/PI staining based flow cytometry (reference value: 4.11 %); assay type: functional
[16] = tested on: MDA-MB-468; experiment: Induction of apoptosis in human MDA-MB-468 cells assessed as viable cells at 3 uM incubated for 24 hrs by Annexin V-FITC/PI staining based flow cytometry (reference value: 88.9 %); assay type: functional; conditions: read-out: Activity
[17] = tested on: MDA-MB-468; experiment: Induction of apoptosis in human MDA-MB-468 cells assessed as early apoptotic cells at 3 uM incubated for 24 hrs by Annexin V-FITC/PI staining based flow cytometry (reference value: 3.17 %); assay type: functional
[18] = tested on: MDA-MB-468; experiment: Induction of apoptosis in human MDA-MB-468 cells assessed as late apoptotic cells at 3 uM incubated for 24 hrs by Annexin V-FITC/PI staining based flow cytometry (reference value: 3.84 %); assay type: functional
[19] = tested on: HCC1937; experiment: Induction of apoptosis in human HCC1937 cells assessed as early apoptotic cells at 1 uM incubated for 24 hrs by Annexin V-FITC/PI staining based flow cytometry (reference value: 0.74 %); assay type: functional
[20] = tested on: HCC1937; experiment: Induction of apoptosis in human HCC1937 cells assessed as necrotic cells at 1 uM incubated for 24 hrs by Annexin V-FITC/PI staining based flow cytometry (reference value: 0.58 %); assay type: functional
[21] = tested on: HCC1937; experiment: Induction of apoptosis in human HCC1937 cells assessed as early apoptotic cells at 3 uM incubated for 24 hrs by Annexin V-FITC/PI staining based flow cytometry (reference value: 0.74 %); assay type: functional
[22] = tested on: HCC1937; experiment: Induction of apoptosis in human HCC1937 cells assessed as late apoptotic cells at 3 uM incubated for 24 hrs by Annexin V-FITC/PI staining based flow cytometry (reference value: 1.45 %); assay type: functional
[23] = tested on: HCC1806; experiment: Induction of apoptosis in human HCC1806 cells assessed as viable cells at 1 uM incubated for 24 hrs by Annexin V-FITC/PI staining based flow cytometry (reference value: 95.4 %); assay type: functional; conditions: read-out: Activity
[24] = tested on: HCC1806; experiment: Induction of apoptosis in human HCC1806 cells assessed as early apoptotic cells at 1 uM incubated for 24 hrs by Annexin V-FITC/PI staining based flow cytometry (reference value: 3.06 %); assay type: functional
[25] = tested on: HCC1806; experiment: Induction of apoptosis in human HCC1806 cells assessed as viable cells at 3 uM incubated for 24 hrs by Annexin V-FITC/PI staining based flow cytometry (reference value: 95.4 %); assay type: functional; conditions: read-out: Activity
[26] = tested on: HCC1806; experiment: Induction of apoptosis in human HCC1806 cells assessed as early apoptotic cells at 3 uM incubated for 24 hrs by Annexin V-FITC/PI staining based flow cytometry (reference value: 3.06 %); assay type: functional
[27] = tested on: HCC1806; experiment: Induction of apoptosis in human HCC1806 cells assessed as late apoptotic cells at 3 uM incubated for 24 hrs by Annexin V-FITC/PI staining based flow cytometry (reference value: 1.48 %); assay type: functional
[28] = tested on: MDA-MB-231; experiment: Induction of apoptosis in human MDA-MB-231 cells assessed as increase in cleaved PARP-1 level incubated for 16 hrs by Western blot analysis; assay type: functional, cell-based; conditions: dose 1-3 µM
[29] = tested on: MDA-MB-468; experiment: Induction of apoptosis in human MDA-MB-468 cells assessed as increase in cleaved PARP-1 level incubated for 24 hrs by Western blot analysis; assay type: functional, cell-based; conditions: dose 1-3 µM
[30] = tested on: HCC1806; experiment: Induction of apoptosis in human HCC1806 cells assessed as increase in cleaved PARP-1 level incubated for 24 hrs by Western blot analysis; assay type: functional, cell-based; conditions: dose 1-3 µM
[31] = tested on: HCC1937; experiment: Induction of apoptosis in human HCC1937 cells assessed as increase in cleaved PARP-1 level incubated for 24 hrs by Western blot analysis; assay type: functional, cell-based; conditions: dose 1-3 µM
[32] = tested on: MDA-MB-231; experiment: Induction of cell cycle arrest in human MDA-MB-231 cells assessed as increase in p21 level incubated for 16 hrs by Western blot analysis; assay type: functional, cell-based; conditions: dose 1-3 µM
[33] = tested on: HCC1937; experiment: Induction of cell cycle arrest in human HCC1937 cells assessed as increase in p21 level incubated for 16 hrs by Western blot analysis; assay type: functional, cell-based; conditions: dose 1-3 µM
[34] = tested on: MDA-MB-231; experiment: Induction of DNA damage in human MDA-MB-231 cells assessed as increase in gamma-H2AX level incubated for 16 hrs by Western blot analysis; assay type: functional, cell-based; conditions: dose 1-3 µM
[35] = tested on: HCC1937; experiment: Induction of DNA damage in human HCC1937 cells assessed as increase in gamma-H2AX level incubated for 24 hrs by Western blot analysis; assay type: functional, cell-based; conditions: dose 1-3 µM

For `C=C1C(=O)[C@]23[C@H](OC(=O)C45CC6CC(CC(C6)C4)C5)[C@H]1CC[C@H]2[C@@]12CO[C@]3(O)[C@@H](O)[C@@H]1C(C)(C)CC[C@@H]2O`, the pIC50 [1] was 6.39, the pIC50 [2] was 6.21 and the Activity [3] was “Dose-dependent-effect”. For the same molecule, the Activity [4] was “Dose-dependent-effect”, the Activity [5] was “Dose-dependent-effect” and the Activity [6] was “Dose-dependent-effect”. The Activity [7] was “Active”, the Activity [8] was 4.31% and the viability at 3 µM [9] was 71.6%. The Activity [10] was 3.51%, the Activity [11] was 20.4% and the viability at 1 µM [12] was 87.5%. It also gave an Activity [13] of 5.18%, an Activity [14] of 7.11% and an Activity [15] of 0.22%. It also gave a viability at 3 µM [16] of 66.3%, an Activity [17] of 30% and an Activity [18] of 3.22%. It also gave an Activity [19] of 1.23%, an Activity [20] of 0.33% and an Activity [21] of 4.23%. For the same molecule, the Activity [22] was 24.1%, the viability at 1 µM [23] was 92.2% and the Activity [24] was 4.92%. It also gave a viability at 3 µM [25] of 74.8%, an Activity [26] of 11% and an Activity [27] of 14.2%. For the same molecule, the Activity [28] was “Dose-dependent-effect”, the Activity [29] was “Dose-dependent-effect” and the Activity [30] was “Dose-dependent-effect”. The Activity [31] was “Dose-dependent-effect”, the Activity [32] was “Dose-dependent-effect” and the Activity [33] was “Dose-dependent-effect”. For the same molecule, the Activity [34] was “Dose-dependent-effect” and the Activity [35] was “Dose-dependent-effect”.
